# Where “and” joins values, the source holds several entries; their conditions need not be identical. Identical values can stand only once. Counter-ions that a name gives are not always drawn.
# Test: Tested for its ability to antagonize epinephrine induced primary wave aggregation in human platelets at alpha-2A-adrenergic receptor sites.
smiles,measurement,value
OC(c1cnc[nH]1)c1cccc2ccccc12 (stereo unspecified) [(1H-Imidazol-4-yl)-naphthalen-1-yl-methanol; hydrochloride],IC50,61.9 µM
c1ccc2c(Cc3cnc[nH]3)cccc2c1 [4-Naphthalen-1-ylmethyl-1H-imidazole; hydrochloride],IC50,3 µM
O=C(c1cnc[nH]1)c1cccc2ccccc12 [(1H-Imidazol-4-yl)-naphthalen-1-yl-methanone; oxalic acid],IC50,580 µM
COC(c1cnc[nH]1)c1cccc2ccccc12 (stereo unspecified) [4-(Methoxy-naphthalen-1-yl-methyl)-1H-imidazole; hydrochloride],IC50,380 µM
CC(c1cnc[nH]1)c1cccc2ccccc12 (stereo unspecified) [4-(1-Naphthalen-1-yl-ethyl)-1H-imidazole],IC50,12.3 µM and 9.1 µM
"OC(c1cnc[nH]1)(c1cccc2ccccc12)C(F)(F)F (stereo unspecified) [2,2,2-Trifluoro-1-(1H-imidazol-4-yl)-1-naphthalen-1-yl-ethanol; hydrochloride]",IC50,> 300 µM

# Reference: BindingDB's records for doi:10.1021/jm00041a011 (Ohio State University, 1994)
